From US7235548B2, “Compounds and their use as positive AMPA receptor modulators” (NeuroSearch A/S, priority 1998, dated 2007)

Tests used:
[1] = biological target: ionotropic quisqualate (AMPA) receptors; experiment: In vitro inhibition of 3H-AMPA binding; settings: 5 nM 3H-AMPA, rat cerebral cortex membranes, 30 min at 2° C.; read-out: IC50 (concentration of the test substance which inhibits the specific binding of 3H-AMPA by 50%)
From the text: L-glutamate (GLU) is the major excitatory neurotransmitter in the mammalian central nervous system. From electrophysiological- and binding studies, there appear to be at least three subtypes of GLU receptors, tentatively named N-methyl-D-aspartate (NMDA)-, quisqualate- and kainate receptors. GLU receptor subtypes sensitive to quisqualate and kainate as a group are often referred to as non-NMDA receptors. Receptor binding studies using the labelled agonists ^3H-AMPA (α-amino-3-hydroxy-5-methyl-4-isoxazolepropionic acid) (for quisqualate receptors) and ^3H-kainate (for kainate receptors) have shown different antagonist selectivities and regional distribution. AMPA has been known for several years to be a potent and selective agonist at the traditionally named quisqualate receptors. Activation of quisqualate receptors by AMPA is associated with Na^+ influx and K^+ efflux leading to depolarization.
The non-NMDA receptors have recently been reclassified to include the quisqualate activated metabotropic receptor type, linked to the inositol triphosphate and diacylglycerate metabolism. […] Selective activation of the metabotropic type has been claimed for trans-ACPD. Recently, the potent and competitive non-NMDA receptor antagonists CNQX and NBQX have been described, and CNQX have been reported not to block the effect of quisqualate at the metabotropic receptor subtype. ^3H-AMPA is a selective radioligand for labelling the ionotropic quisqualate (AMPA) receptors.
Preparations are performed at 0–4° C. unless otherwise indicated. Cerebral cortex from male Wistar rats (150–200 g) is homogenized for 5–10 sec in 20 ml Tris-HCl (30 mM, pH 7.4) using an Ultra-Turrax homogenizer. The suspension is centrifuged at 27,000×g for 15 min and the pellet is washed three times with buffer (centrifuged at 27,000×g for 10 min). The washed pellet is homogenized in 20 ml of buffer and incubated on a water bath (37° C.) for 30 min to remove endogenous glutamate and then centrifuged for 10 min at 27,000×g. The pellet is then homogenized in buffer and centrifuged at for 10 min at 27,000×g. The final pellet is resuspended in 30 ml buffer and the preparation is frozen and stored at −20° C.
The membrane preparation is thawed and centrifuged at 2° C. for 10 min at 27,000×g for 10 min. The pellet is washed twice with 20 ml 30 mM Tris-HCl containing 2.5 mM CaCl2, pH 7.4 using an Ultra-Turrax homogenizer and centrifuged for 10 min at 27,000×g. The final pellet is resuspended in 30 mM Tris-HCl containing 2.5 mM CaCl2 and 100 mM KSCN, pH 7.4 (100 ml per g of original tissue) and used for binding assays. Aliquots of 0.5 (0.2) ml are added to 25 (20) μl of test solution and 25(20) μl of ^3H-AMPA (5 nM, final concentration), mixed and incubated for 30 min at 2° C. Non-specific binding is determined using L-glutamate (0.6 mM, final concentration). After incubation the 550 μl samples are added 5 ml of ice-cold buffer and poured directly onto Whatman GF/C glass fibre filters under suction and immediately washed with 5 ml of ice-cold buffer. The 240 μl samples are filtered over glass fibre filter using a Skatron cell harvrester. The filters are washed with 3 ml ice-cold buffer. The amount of radioactivity on the filters is determined by conventional liquid scintillation counting. Specific binding is total binding minus non-specific binding.
The test value will be given as the IC50 (the concentration (μM) of the test substance which inhibits the specific binding of ^3H-AMPA by 50%)

AMPA receptors = experiment: AMPA evoked single neuron spike activity in rat hippocampus (iontophoretic application of AMPA), in vivo; settings: 10 mg kg^−1 i.v., rat hippocampus
From the text: Evaluation of the in vivo effects of positive AMPA modulators (PAMs) on the AMPA evoked spike activity in rat hippocampus. Hippocampal single neuron spike activity is strongly influenced by excitatory input, and iontophoretic application of AMPA induces spike activity in vivo in a dose-dependent manner ([…] et al. 1998). […] PAMs potentate AMPA receptor activation in vitro, and if this mechanism also operates in vivo, the i.v. injection of an PAM should enhance AMPA evoked spike activity. Thus, the aim of this study was to test the in vivo effect of a group of in vitro active PAMs. This have been done by studying their ability to enhances AMPA evoked spike activity after i.v. administration. Experiments were performed on male Wistar rats (M & B, Denmark) weighing 280-380 g, housed in two per cage with free access to food and water. […] Additional anaesthetic was given i.v. if the rat responded to a pinch of the back foot. The trachea was cannulated and the rats were placed in a stereotaxic frame and ventilated by a rodent ventilator (Ugo Basile, Comerio-Varese, Italy). Core body temperature was maintained at 37.5° C. by a DC heating pad. The left and dorsal part of the parietal bone was removed by craniotomy and the dura was withdrawn exposing the pia mater and underlying brain, covered with 0.9% NaCl. AMPA (Sigma, USA) was dissolved at 10 mM in 0.2 M NaCl. NMDA (Sigma, USA) was dissolved at 100 mM in 100 mM NaCl. Both solutions were adjusted to pH 7.5-8.0 with NaOH. COMPOUND 61 was dissolved in 200 mM CH3SO3^- Na^+ at a contration of 10 mM for iontophoretic application ([…]) and in isotonic glucose (278 mM) for i.v. administration. Cyclothiazide, COMPOUND 63, COMPOUND 56, COMPOUND 115 and COMPOUND 114 were all dissolved at in 5% chremophore solution at a concentration of 5 mg ml^-1. Evoked neuronal spike activity was analyzed on-line by a computer, saving single spikes and time of event. Neuronal spike activity (number of action potentials s^-1) was monitored on a pulse rate histogram together with indicators for AMPA, COMPOUND 61 and vehicle application. Extracellular recordings of single hippocampal neuron spikes were made with five-barrel glass microelectrodes (5B120F-6, World Precision Instruments Inc., Sarasota, Fla., USA) with a tip diameter of 10-12 μm. The individual barrels were filled with 5 M NaCl (recording), 400 mM NaCl (current balancing), 10 mM COMPOUND 61 in 200 mM CH3SO3^- Na^+ (pH 4.7), 200 mM CH3SO3^- Na^+ (pH 4.7, Vehicle), and the last barrel was filled with the AMPA. Experiments were performed on hippocampal neurons (A=5.5-6.5 mm, L=1.5-2.0 mm, H=2.0-3.0 mm, according to Paxinos & Watson, 1986). Neuronal spike activity was evoked by iontophoretic application of AMPA for periods of 10 to 15 s with 1.5 min intervals. Single neuron spike activity was amplified 5000 times with a bandwidth of 0.3 and 3 kHz (CyberAmp 320 with a Al 402 x50 smartprobe, Axon Instruments, California, USA). On-line and off-line analyses were performed by the Spike2 program with a 1401 plus interface (Cambridge Electronic Design Limited, England). The computer program also recorded mean arterial blood pressure and monitored and controlled iontophoretic application. AMPA was ejected into hippocampus in regular cycles of 100-105 s. […] Recording of neuronal spike activity was continued for at least 45 min after intravenous injection. The PAM reactivity was tested by microiontophoretic application of COMPOUND 61 (20 nA, FIG.).

SMILES	melting point [°C]	also measured
CS(=O)(=O)N1CCN(S(=O)(=O)c2ccc3c(c2)S(=O)(=O)NC(C2CCCCC2)N3)CC1 (stereo not drawn) [Compound 62, 3-Cyclohexyl-7-(4′-methylsulfonylpiperazino)sulfonyl-1,2,3,4-tetrahydro-1,2,4-benzothiadiazine-1,1-dioxide]		IC50 [1]: 6 µM
CCN(CC)S(=O)(=O)c1ccc2c(c1)S(=O)(=O)NC(C1CCCCC1)N2 (stereo not drawn) [Compound 48, 3-Cyclohexyl-7-(N,N-diethylamino)sulfonyl-1,2,3,4-tetrahydro-1,2,4-benzothiadiazine-1,1-dioxide]		IC50 [1]: 4.4 µM
O=C1NC(c2ccccc2)Oc2ccccc21 (stereo not drawn) [Compound 4, 2-Phenyl-3,4-dihydro-1,3-benzoxazine-4-one]	157 to 160	
NC(=O)c1ccc2c(c1)S(=O)(=O)NC(C1CCCCC1)N2 (stereo not drawn) [Compound 15, 3-Cyclohexyl-7-carbamoyl-1,2,3,4-tetrahydro-1,2,4-benzothiadiazine-1,1-dioxide]		IC50 [1]: 39 µM
O=[N+]([O-])c1ccc2c(c1)S(=O)(=O)NC(C1CCCCC1)N2 (stereo not drawn) [Compound 40, 3-Cyclohexyl-7-nitro-1,2,3,4-tetrahydro-1,2,4-benzothiadiazine-1,1-dioxide]	209 to 211	
CC(=O)Nc1ccccc1-c1ccc2c(c1)S(=O)(=O)NC(C1CCCCC1)N2 (stereo not drawn) [Compound 19, 3-Cyclohexyl-7-(2′-acetamidophenyl)-1,2,3,4-tetrahydro-1,2,4-benzothiadiazine-1,1-dioxide]	245 to 249	
CC1NC(=O)c2ccccc2O1 (stereo not drawn) [Compound 3, 2-Methyl-3,4-dihydro-1,3-benzoxazine-4-one]	124 to 126	
O=S1(=O)NC(C2CC3C=CC2C3)Nc2ccc(S(=O)(=O)N3CCCCC3)cc21 (stereo not drawn) [Compound 57, 3-Bicyclo[2.2.1]hept-5′-en-2′-yl-7-piperidinosulfonyl-1,2,3,4-tetrahydro-1,2,4-benzothiadiazine-1,1-dioxide]		IC50 [1]: 26 µM
CCC1(C)NC(=O)c2ccccc2O1 (stereo not drawn) [Compound 8, 2-Ethyl-2-methyl-3,4-dihydro-1,3-benzoxazine-4-one]	76 to 78	
CN(C)S(=O)(=O)c1ccccc1-c1ccc2c(c1)S(=O)(=O)NC(C1CCCCC1)N2 (stereo not drawn) [Compound 24, 3-Cyclohexyl-7-(2′-(N,N-dimethylsulfamoyl)phenyl)-1,2,3,4-tetrahydro-1,2,4-benzothiadiazine-1,1-dioxide]	290 to 300	
CS(=O)(=O)Nc1ccc2c(c1)S(=O)(=O)NC(C1CCCCC1)N2 (stereo not drawn) [Compound 39, 3-Cyclohexyl-7-methylsulfonylamino-1,2,3,4-tetrahydro-1,2,4-benzothiadiazine-1,1-dioxide]	255 to 258	
CN(C)S(=O)(=O)c1ccc2c(c1)S(=O)(=O)NC(C1CCCCC1)N2 (stereo not drawn) [Compound 47, 3-Cyclohexyl-7-dimethylaminosulfonyl-1,2,3,4-tetrahydro-1,2,4-benzothiadiazine-1,1-dioxide]		IC50 [1]: 5.3 µM
CN1C(C2CCCCC2)Nc2ccc(S(=O)(=O)N3CCOCC3)cc2S1(=O)=O (stereo not drawn) [Compound 85, 3-Cyclohexyl-2-methyl-7-morpholinosulfonyl-1,2,3,4-tetrahydro-1,2,4-benzothiadiazine-1,1-dioxide]	243 to 245	
O=S1(=O)NC(C2CCCCC2)Nc2cc3c(cc21)OCCO3 (stereo not drawn) [Compound 118, 3-cyclohexyl-6,7-ethylenedioxy-1,2,3,4-tetrahydro-1,2,4-benzothiadiazine-1,1-dioxide]	196 to 200	
CN1c2ccc(S(=O)(=O)N3CCOCC3)cc2S(=O)(=O)NC1C1CCCCC1 (stereo not drawn) [Compound 86, 3-Cyclohexyl-4-methyl-7-morpholinosulfonyl-1,2,3,4-tetrahydro-1,2,4-benzothiadiazine-1,1-dioxide]	207 to 210	
NS(=O)(=O)c1cc2c(cc1Cl)NC(C1CC3C=CC1C3)NS2(=O)=O (stereo not drawn) [cyclothiazide, reference compound]		AMPA evoked spike activity (AMPA receptors): did not enhance
O=S1(=O)NC(C2CCCC2)Nc2ccc(S(=O)(=O)N3CCCCC3)cc21 (stereo not drawn) [Compound 55, 3-Cyclopentyl-7-piperidinosulfonyl-1,2,3,4-tetrahydro-1,2,4-benzothiadiazine-1,1-dioxide]	258 to 260	
O=S1(=O)NC(C2CCCCC2)Nc2ccc(-c3cccc(O)c3)cc21 (stereo not drawn) [Compound 27, 3-Cyclohexyl-7-(3′-hydroxyphenyl)-1,2,3,4-tetrahydro-1,2,4-benzothiadiazine-1,1-dioxide]	238 to 246	
COc1cc(C(F)(F)F)ccc1-c1ccc2c(c1)S(=O)(=O)NC(C1CCCCC1)N2 (stereo not drawn) [Compound 22, 3-Cyclohexyl-7-(2′-methoxy-4′-trifluoromethylphenyl)-1,2,3,4-tetrahydro-1,2,4-benzothiadiazine-1,1-dioxide]	255 to 257	
O=S1(=O)NC(C2CCCCC2)Nc2ccc3c(c21)OCCO3 (stereo not drawn) [Compound 122, 3-Cyclohexyl-7,8-ethylenedioxy-1,2,3,4-tetrahydro-1,2,4-benzothiadiazine-1,1-dioxide]	268 to 270	
NS(=O)(=O)c1cc(Br)c2c(c1)S(=O)(=O)NC(C1CCCCC1)N2 (stereo not drawn) [Compound 101, 5-Bromo-3-cyclohexyl-7-sulfamoyl-1,2,3,4-tetrahydro-1,2,4-benzothiadiazine-1,1-dioxide]	254 to 258	
